Structures are written as SMILES.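 48-hour exposure; five concentrations; linearly interpolated endpoints. TGI denotes the concentration required for complete inhibition of growth.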

One test relates to NCI-H522 lung. Description: NCI anticancer screen, dose series, 48 h.
In turn, `COc1cc([C@@H]2OCC3C(c4ccc5c(c4)OCO5)OCC32)cc(OC)c1OC` (stereo partly drawn) returned a TGI of over 100 µM.

`O=C1CCC23CC(C=CC=C12)n1c(=O)n(-c2ccccc2)c(=O)n13` (stereo not drawn) yielded a TGI of over 100 µM.

The molecule `C[C@]12CC[C@H](O)CC1=CC[C@@H]1C2CC[C@]2(C)C(=O)N(N)C(=O)CC12` (stereo partly drawn) returned a TGI of over 100 µM.

`O=c1[nH][nH]c(=O)n1Cc1ccccc1Cn1c(=O)[nH][nH]c1=O` registered a TGI of over 100 µM.

The molecule `O=C(NNC(=O)c1ccccc1SSc1ccccc1C(=O)NNC(=O)c1ccccc1S)c1ccccc1S` had a TGI of 1.67 µM.

For the molecule `Cc1ccccc1-n1c(=O)c2ncn(CCCl)c2n(-c2ccccc2C)c1=S`, the TGI is over 100 µM.

In turn, `N#CN=C(N(Cc1ccccc1)Cc1ccccc1)N(Cc1ccccc1)Cc1ccccc1` had a TGI of over 100 µM.

In turn, `[N-]=[N+]=Nc1cc(=O)oc2ccccc12` gave a TGI of over 100 µM.

`CNC(=O)C(C)C1CCC2(C)C=CC(=O)C(C)=C2C1O` (stereo not drawn) had a TGI of over 100 µM.

`CCCN=C1CCN(Cc2ccccc2)c2ccccc2N1` showed a TGI of 27.9 µM.

In turn, `CCN(CC)CCC(=O)Nc1ccc2c(c1)C(=O)c1ccc(NC(=O)CCN(CC)CC)cc1C2=O` had a TGI of 23.5 µM.

`CC(C)CCCCCCCCCCCCC(=O)NCC(=O)NC1C(C)OC(Nc2ncnc3c2ncn3C)C(O)C1O` (stereo not drawn): the TGI is 31.9 µM.

As to `CCCCCCCCCCCOc1ccc(C(=O)C(=O)c2ccc(OCCCCCCCCCCC)c(OCCCCCCCCCCC)c2)cc1OCCCCCCCCCCC`, the TGI is over 100 µM.

Molecule `CC(N)Cc1ccc(C(=O)Cl)cc1` (stereo not drawn) gave a TGI of over 100 µM.

`Cc1cn(C2CC(N(O)C(N)=O)C(CO)O2)c(=O)[nH]c1=O` (stereo not drawn) had a TGI of over 100 µM.

Regarding `CC1C=C(CCCCCCCCCCCC[C@@H](O)[C@@H]2CC[C@@H]([C@@H]3CC[C@@H](C(O)CCCCCCCCCCCCC4=C[C@H](C)OC4=O)O3)O2)C(=O)O1` (stereo partly drawn), the TGI stood at 39.6 µM.

For `O=C1c2ccccc2C2C1N2C(=O)C(F)(F)F` (stereo not drawn), the TGI is over 100 µM.

`CC(=O)NC1=C(NCCC(C)C)C(=O)c2ccccc2C1=O` yielded a TGI of over 50 µM.

`O=C(Cc1cccs1)N[C@@H]1C(=O)N2C(C(=O)OC(c3ccccc3)c3ccccc3)=C(CO)CS[C@H]12` registered a TGI of over 100 µM.

In the case of `COc1ccc2c(=O)c(O)c(-c3ccc(OC)c(OC)c3)oc2c1`, the TGI was 46 µM.

Regarding `Nc1cccc2cc(Cl)cnc12`, the TGI was over 100 µM.

Take `CCOC(=O)C1=C(C)NC(=S)NC1c1ccccc1` (stereo not drawn): the TGI was over 100 µM.

As for `N.N.N.N.O=[N+]([O-])[O-].[Co+3].[N-]=[N+]=[N-].[N-]=[N+]=[N-]`, the TGI is over 100 µM.

The molecule `CCC12C=CCN3CCC4(C(=C(C(=O)OC)[C@@H]1O)Nc1ccccc14)C32` (stereo partly drawn) displayed a TGI of 3.06 µM.

In the case of `CC(=O)Nc1ccc(-c2nnc(SCC(=O)Nc3ccc([N+](=O)[O-])cc3)o2)cc1`, the TGI amounted to 20.7 µM.

In the next test the test system is M14 melanoma. Description: NCI anticancer screen, dose series, 48 h.
Consider `COc1cc([C@@H]2OCC3C(c4ccc5c(c4)OCO5)OCC32)cc(OC)c1OC` (stereo partly drawn), for which the TGI was over 100 µM.

Take `C[C@]12CC[C@H](O)CC1=CC[C@@H]1C2CC[C@]2(C)C(=O)N(N)C(=O)CC12` (stereo partly drawn): the TGI is over 100 µM.

With `O=c1[nH][nH]c(=O)n1Cc1ccccc1Cn1c(=O)[nH][nH]c1=O`, the TGI is over 100 µM.

`O=C(NNC(=O)c1ccccc1SSc1ccccc1C(=O)NNC(=O)c1ccccc1S)c1ccccc1S`: the TGI was over 100 µM.

Take `Cc1ccccc1-n1c(=O)c2ncn(CCCl)c2n(-c2ccccc2C)c1=S`: the TGI was over 100 µM.

In the case of `N#CN=C(N(Cc1ccccc1)Cc1ccccc1)N(Cc1ccccc1)Cc1ccccc1`, the TGI was over 100 µM.

Regarding `[N-]=[N+]=Nc1cc(=O)oc2ccccc12`, the TGI is over 100 µM.

`Cc1cccc2c(=O)cc(-c3ccccc3)[nH]c12` registered a TGI of over 100 µM.

In the case of `CCCN=C1CCN(Cc2ccccc2)c2ccccc2N1`, the TGI stood at 31.3 µM.

On to `CCN(CC)CCC(=O)Nc1ccc2c(c1)C(=O)c1ccc(NC(=O)CCN(CC)CC)cc1C2=O`, for which the TGI came out at 27.1 µM.

With `Oc1ccc(-c2nc(-c3cccnc3)c(-c3ccc(F)cc3)[nH]2)cc1`, the TGI was 32.9 µM.

`CCCCCCCCCCCOc1ccc(C(=O)C(=O)c2ccc(OCCCCCCCCCCC)c(OCCCCCCCCCCC)c2)cc1OCCCCCCCCCCC` gave a TGI of over 100 µM.

The molecule `CC(N)Cc1ccc(C(=O)Cl)cc1` (stereo not drawn) had a TGI of over 100 µM.

`Cc1cn(C2CC(N(O)C(N)=O)C(CO)O2)c(=O)[nH]c1=O` (stereo not drawn) had a TGI of over 100 µM.

The molecule `CC1C=C(CCCCCCCCCCCC[C@@H](O)[C@@H]2CC[C@@H]([C@@H]3CC[C@@H](C(O)CCCCCCCCCCCCC4=C[C@H](C)OC4=O)O3)O2)C(=O)O1` (stereo partly drawn) came in with a TGI of over 100 µM.

For the molecule `O=C1c2ccccc2C2C1N2C(=O)C(F)(F)F` (stereo not drawn), the TGI is over 100 µM.

In turn, `CC(=O)NC1=C(NCCC(C)C)C(=O)c2ccccc2C1=O` returned a TGI of over 50 µM.

With `O=C(Cc1cccs1)N[C@@H]1C(=O)N2C(C(=O)OC(c3ccccc3)c3ccccc3)=C(CO)CS[C@H]12`, the TGI was over 100 µM.

`COc1ccc2c(=O)c(O)c(-c3ccc(OC)c(OC)c3)oc2c1` had a TGI of over 100 µM.

`CC(=O)NNc1nc(C)c(C(=O)NNC(=O)C(=O)Nc2c(Cl)cc([N+](=O)[O-])cc2Cl)s1`: the TGI is over 100 µM.

Take `Nc1cccc2cc(Cl)cnc12`: the TGI is over 100 µM.

As for `CCOC(=O)C1=C(C)NC(=S)NC1c1ccccc1` (stereo not drawn), the TGI was over 100 µM.

As for `N.N.N.N.O=[N+]([O-])[O-].[Co+3].[N-]=[N+]=[N-].[N-]=[N+]=[N-]`, the TGI is over 100 µM.

Take `CCC12C=CCN3CCC4(C(=C(C(=O)OC)[C@@H]1O)Nc1ccccc14)C32` (stereo partly drawn): the TGI is 5.54 µM.

`CC(=O)Nc1ccc(-c2nnc(SCC(=O)Nc3ccc([N+](=O)[O-])cc3)o2)cc1` yielded a TGI of 26.9 µM.

For another test, the system named is OVCAR-8 ovarian. Description: NCI anticancer screen, dose series, 48 h.
`COc1cc([C@@H]2OCC3C(c4ccc5c(c4)OCO5)OCC32)cc(OC)c1OC` (stereo partly drawn) yielded a TGI of over 100 µM.

In turn, `O=C1CCC23CC(C=CC=C12)n1c(=O)n(-c2ccccc2)c(=O)n13` (stereo not drawn) had a TGI of over 100 µM.

Consider `C[C@]12CC[C@H](O)CC1=CC[C@@H]1C2CC[C@]2(C)C(=O)N(N)C(=O)CC12` (stereo partly drawn), for which the TGI was over 100 µM.

As to `O=c1[nH][nH]c(=O)n1Cc1ccccc1Cn1c(=O)[nH][nH]c1=O`, the TGI is over 100 µM.

The molecule `O=C(NNC(=O)c1ccccc1SSc1ccccc1C(=O)NNC(=O)c1ccccc1S)c1ccccc1S` yielded a TGI of over 100 µM.

`Cc1ccccc1-n1c(=O)c2ncn(CCCl)c2n(-c2ccccc2C)c1=S` gave a TGI of over 100 µM.

`N#CN=C(N(Cc1ccccc1)Cc1ccccc1)N(Cc1ccccc1)Cc1ccccc1` came in with a TGI of over 100 µM.

In the case of `[N-]=[N+]=Nc1cc(=O)oc2ccccc12`, the TGI is over 100 µM.

`CNC(=O)C(C)C1CCC2(C)C=CC(=O)C(C)=C2C1O` (stereo not drawn) showed a TGI of over 87.9 µM.

Take `CCCN=C1CCN(Cc2ccccc2)c2ccccc2N1`: the TGI was determined as 32.6 µM.

Molecule `CCN(CC)CCC(=O)Nc1ccc2c(c1)C(=O)c1ccc(NC(=O)CCN(CC)CC)cc1C2=O` showed a TGI of 18 µM.

`Oc1ccc(-c2nc(-c3cccnc3)c(-c3ccc(F)cc3)[nH]2)cc1` showed a TGI of 34.3 µM.

On to `CC(C)CCCCCCCCCCCCC(=O)NCC(=O)NC1C(C)OC(Nc2ncnc3c2ncn3C)C(O)C1O` (stereo not drawn), for which the TGI was over 100 µM.

The record behind these values is PubChem BioAssay (NCI).
